Data taken from US10988792B2, “Methods for antimicrobial resistance determination” (bioMerieux, Inc., priority 2009, dated 2021).

What was measured:
Format in all cases: cell-based
[1] = system: E. faecium #12406 (VRE); test: Vancomycin MIC by VITEK 2; conditions: read-out: vancomycin MIC by VITEK 2
[2] = system: E. faecium #13185 (VRE); test: Vancomycin MIC by VITEK 2; conditions: read-out: vancomycin MIC by VITEK 2
[3] = system: E. faecium 12406 (VRE); test: Co-culture with vancomycin and Sytox Green, intrinsic fluorescence and membrane integrity of pellet; conditions: for Microbial NADH fluorescence (Ex340 nm/Em440 nm) / Microbial tryptophan fluorescence (Ex300 nm/Em360 nm): 12406 (VRE)
Method: (§1) For each test strain, a 1 μL loopful of colonies from a 24-48 hour plate was suspended in 10-12 mL of BacT/ALERT SA media and cultured for 4-9 hours at 37° C. […] Aliquots of the cultures were removed for analysis immediately (T0) and after 1, 2.5 and 4 hours.
(§2) At the appropriate time-point, 0.5 mL aliquots of the cultures (0.5 mL) were overlaid on a density cushion composed of 24% w/v CsCl in 10 mM Hepes, pH 7.4 and 0.005% Pluronic F-108 contained in custom-made optical centrifugation tubes as disclosed in related U.S. patent application, Ser. No. 12/589,969, entitled “Separation Device for Use in the Separation, Characterization and/or Identification of Microorganisms”, filed Oct. 30, 2009. The tubes were sealed and centrifuged at 10,000 rpm for 2 minutes to separate intact microorganisms from the culture medium and unbound chemicals. The tubes were then placed into a custom-built tube holder directly onto a fiber optic probe built into the base. The probe was attached to a FluoroLog 3 spectrofluorimeter. The tube was interrogated through its UV-transparent base, and fluorescence and diffuse reflectance readings collected.

[4] = system: E. faecium 13185 (VRE); test: as above; conditions: for Microbial NADH fluorescence (Ex340 nm/Em440 nm) / Microbial tryptophan fluorescence (Ex300 nm/Em360 nm): 13185 (VRE)
Method: as §1, §2

[5] = system: E. faecium 12480 (VSE); test: as above; conditions: for Microbial NADH fluorescence (Ex340 nm/Em440 nm) / Microbial tryptophan fluorescence (Ex300 nm/Em360 nm): 12480 (VSE)
Method: For each test strain, a 1 μL loopful of colonies from a 24-48 hour plate was suspended in 10-12 mL of BacT/ALERT SA media and cultured for 4-9 hours at 37° C. Samples of each log phase culture were then incubated with 0, 0.25, 2.5 and 12.5 μg/mL of vancomycin-HCl in combination with 1:5000 dilution of stock Sytox Green, a viable cell impermeant DNA stain (Molecular Probes, cat #S7020), for a period of 4 hours at 37° C. Aliquots of the cultures were removed for analysis immediately (T0) and after 1, 2.5 and 4 hours.
as §2

[6] = VRE strain 12406, vancomycin 2.5 and 12.5 μg/mL
[7] = VRE strain 13185, vancomycin 2.5 and 12.5 μg/mL
[8] = VSE strain 12480, vancomycin 2.5 and 12.5 μg/mL

Compound: CN[C@H](CC(C)C)C(=O)N[C@H]1C(=O)N[C@@H](CC(N)=O)C(=O)N[C@H]2C(=O)N[C@H]3C(=O)N[C@H](C(=O)N[C@H](C(=O)O)c4cc(O)cc(O)c4-c4cc3ccc4O)[C@H](O)c3ccc(c(Cl)c3)Oc3cc2cc(c3O[C@@H]2O[C@H](CO)[C@@H](O)[C@H](O)[C@H]2O[C@H]2C[C@](C)(N)[C@H](O)[C@H](C)O2)Oc2ccc(cc2Cl)[C@H]1O [vancomycin]
- MIC [1]: > 32 µg/mL
- MIC [2]: > 32 µg/mL
- Microbial NADH fluorescence (Ex340 nm/Em440 nm) ([3]; Vanc. 0.25 μg/mL, 1 hour): 616,448
- Microbial tryptophan fluorescence (Ex300 nm/Em360 nm) ([3]; Vanc. 0.25 μg/mL, 1 hour): 666,793
- Microbial NADH fluorescence (Ex340 nm/Em440 nm) ([3]; Vanc. 0.25 μg/mL, 2.5 hour): 703,451
- Microbial tryptophan fluorescence (Ex300 nm/Em360 nm) ([3]; Vanc. 0.25 μg/mL, 2.5 hour): 679,880
- Microbial NADH fluorescence (Ex340 nm/Em440 nm) ([3]; Vanc. 0.25 μg/mL, 4 hour): 598,853
- Microbial tryptophan fluorescence (Ex300 nm/Em360 nm) ([3]; Vanc. 0.25 μg/mL, 4 hour): 800,658
- Microbial NADH fluorescence (Ex340 nm/Em440 nm) ([3]; Vanc. 0.25 μg/mL, Zero time): 207,307
- Microbial tryptophan fluorescence (Ex300 nm/Em360 nm) ([3]; Vanc. 0.25 μg/mL, Zero time): 463,942
- Microbial tryptophan fluorescence (Ex300 nm/Em360 nm) ([3]; Vanc. 2.5 μg/mL, 1 hour): 560,948
- Microbial NADH fluorescence (Ex340 nm/Em440 nm) ([3]; Vanc. 2.5 μg/mL, 2.5 hour): 573,926
- Microbial tryptophan fluorescence (Ex300 nm/Em360 nm) ([3]; Vanc. 2.5 μg/mL, 2.5 hour): 656,768
- Microbial NADH fluorescence (Ex340 nm/Em440 nm) ([3]; Vanc. 2.5 μg/mL, 4 hour): 931,786
- Microbial tryptophan fluorescence (Ex300 nm/Em360 nm) ([3]; Vanc. 2.5 μg/mL, 4 hour): 651,886
- Microbial NADH fluorescence (Ex340 nm/Em440 nm) ([3]; Vanc. 2.5 μg/mL, Zero time): 440,416
- Microbial tryptophan fluorescence (Ex300 nm/Em360 nm) ([3]; Vanc. 2.5 μg/mL, Zero time): 425,860
- Microbial NADH fluorescence (Ex340 nm/Em440 nm) ([3]; Vanc. 12.5 μg/mL, 1 hour): 207,520
- Microbial tryptophan fluorescence (Ex300 nm/Em360 nm) ([3]; Vanc. 12.5 μg/mL, 1 hour): 433,269
- Microbial NADH fluorescence (Ex340 nm/Em440 nm) ([3]; Vanc. 12.5 μg/mL, 2.5 hour): 279,170
- Microbial tryptophan fluorescence (Ex300 nm/Em360 nm) ([3]; Vanc. 12.5 μg/mL, 2.5 hour): 560,607
- Microbial NADH fluorescence (Ex340 nm/Em440 nm) ([3]; Vanc. 12.5 μg/mL, 4 hour): 765,401
- Microbial tryptophan fluorescence (Ex300 nm/Em360 nm) ([3]; Vanc. 12.5 μg/mL, 4 hour): 738,461
- Microbial NADH fluorescence (Ex340 nm/Em440 nm) ([3]; Vanc. 12.5 μg/mL, Zero time): 172,372
- Microbial tryptophan fluorescence (Ex300 nm/Em360 nm) ([3]; Vanc. 12.5 μg/mL, Zero time): 463,985
- Course of cellular NADH levels [3, 6]: rose after approximately 1 hour in culture and continued to rise over the 4-hour culture period
- Course of cellular tryptophan levels [3, 6]: rose slowly over the 4-hour culture period
- Delay in NADH production compared with the other VRE strain ([3]; VRE strain #12406, correlated with an influx of Sytox Green): longer delay in NADH production
- Microbial NADH fluorescence (Ex340 nm/Em440 nm) ([4]; Vanc. 0.25 μg/mL, 1 hour): 708,442
- Microbial tryptophan fluorescence (Ex300 nm/Em360 nm) ([4]; Vanc. 0.25 μg/mL, 1 hour): 557,453
- Microbial NADH fluorescence (Ex340 nm/Em440 nm) ([4]; Vanc. 0.25 μg/mL, 2.5 hour): 496,545
- Microbial tryptophan fluorescence (Ex300 nm/Em360 nm) ([4]; Vanc. 0.25 μg/mL, 2.5 hour): 809,317
- Microbial NADH fluorescence (Ex340 nm/Em440 nm) ([4]; Vanc. 0.25 μg/mL, 4 hour): 627,392
- Microbial tryptophan fluorescence (Ex300 nm/Em360 nm) ([4]; Vanc. 0.25 μg/mL, 4 hour): 880,899
- Microbial NADH fluorescence (Ex340 nm/Em440 nm) ([4]; Vanc. 0.25 μg/mL, Zero time): 316,618
- Microbial tryptophan fluorescence (Ex300 nm/Em360 nm) ([4]; Vanc. 0.25 μg/mL, Zero time): 546,862
- Microbial NADH fluorescence (Ex340 nm/Em440 nm) ([4]; Vanc. 2.5 μg/mL, 1 hour): 237,463
- Microbial tryptophan fluorescence (Ex300 nm/Em360 nm) ([4]; Vanc. 2.5 μg/mL, 1 hour): 569,043
- Microbial NADH fluorescence (Ex340 nm/Em440 nm) ([4]; Vanc. 2.5 μg/mL, 2.5 hour): 965,305
- Microbial tryptophan fluorescence (Ex300 nm/Em360 nm) ([4]; Vanc. 2.5 μg/mL, 2.5 hour): 489,661
- Microbial NADH fluorescence (Ex340 nm/Em440 nm) ([4]; Vanc. 2.5 μg/mL, 4 hour): 782,908
- Microbial tryptophan fluorescence (Ex300 nm/Em360 nm) ([4]; Vanc. 2.5 μg/mL, 4 hour): 868,768
- Microbial NADH fluorescence (Ex340 nm/Em440 nm) ([4]; Vanc. 2.5 μg/mL, Zero time): 256,533
- Microbial tryptophan fluorescence (Ex300 nm/Em360 nm) ([4]; Vanc. 2.5 μg/mL, Zero time): 531,239
- Microbial tryptophan fluorescence (Ex300 nm/Em360 nm) ([4]; Vanc. 12.5 μg/mL, 1 hour): 579,537
- Microbial NADH fluorescence (Ex340 nm/Em440 nm) ([4]; Vanc. 12.5 μg/mL, 2.5 hour): 775,629
- Microbial tryptophan fluorescence (Ex300 nm/Em360 nm) ([4]; Vanc. 12.5 μg/mL, 2.5 hour): 537,067
- Microbial NADH fluorescence (Ex340 nm/Em440 nm) ([4]; Vanc. 12.5 μg/mL, 4 hour): 710,100
- Microbial tryptophan fluorescence (Ex300 nm/Em360 nm) ([4]; Vanc. 12.5 μg/mL, 4 hour): 782,106
- Microbial NADH fluorescence (Ex340 nm/Em440 nm) ([4]; Vanc. 12.5 μg/mL, Zero time): 234,554
- Microbial tryptophan fluorescence (Ex300 nm/Em360 nm) ([4]; Vanc. 12.5 μg/mL, Zero time): 537,160
- Course of cellular NADH levels [4, 7]: rose after approximately 1 hour in culture and continued to rise over the 4-hour culture period
- Course of cellular tryptophan levels [4, 7]: rose slowly over the 4-hour culture period
- Microbial NADH fluorescence (Ex340 nm/Em440 nm) ([5]; Vanc. 0.25 μg/mL, 1 hour): 271,470
- Microbial tryptophan fluorescence (Ex300 nm/Em360 nm) ([5]; Vanc. 0.25 μg/mL, 1 hour): 460,266
- Microbial NADH fluorescence (Ex340 nm/Em440 nm) ([5]; Vanc. 0.25 μg/mL, 2.5 hour): 500,618
- Microbial tryptophan fluorescence (Ex300 nm/Em360 nm) ([5]; Vanc. 0.25 μg/mL, 2.5 hour): 678,352
- Microbial NADH fluorescence (Ex340 nm/Em440 nm) ([5]; Vanc. 0.25 μg/mL, 4 hour): 483,445
- Microbial tryptophan fluorescence (Ex300 nm/Em360 nm) ([5]; Vanc. 0.25 μg/mL, 4 hour): 706,797
- Microbial NADH fluorescence (Ex340 nm/Em440 nm) ([5]; Vanc. 0.25 μg/mL, Zero time): 184,649
- Microbial tryptophan fluorescence (Ex300 nm/Em360 nm) ([5]; Vanc. 0.25 μg/mL, Zero time): 425,539
- Microbial NADH fluorescence (Ex340 nm/Em440 nm) ([5]; Vanc. 2.5 μg/mL, 1 hour): 254,828
- Microbial tryptophan fluorescence (Ex300 nm/Em360 nm) ([5]; Vanc. 2.5 μg/mL, 1 hour): 438,541
- Microbial NADH fluorescence (Ex340 nm/Em440 nm) ([5]; Vanc. 2.5 μg/mL, 2.5 hour): 149,686
- Microbial tryptophan fluorescence (Ex300 nm/Em360 nm) ([5]; Vanc. 2.5 μg/mL, 2.5 hour): 466,525
- Microbial NADH fluorescence (Ex340 nm/Em440 nm) ([5]; Vanc. 2.5 μg/mL, 4 hour): 100,931
- Microbial tryptophan fluorescence (Ex300 nm/Em360 nm) ([5]; Vanc. 2.5 μg/mL, 4 hour): 416,780
- Microbial NADH fluorescence (Ex340 nm/Em440 nm) ([5]; Vanc. 2.5 μg/mL, Zero time): 221,692
- Microbial tryptophan fluorescence (Ex300 nm/Em360 nm) ([5]; Vanc. 2.5 μg/mL, Zero time): 361,962
- Microbial NADH fluorescence (Ex340 nm/Em440 nm) ([5]; Vanc. 12.5 μg/mL, 1 hour): 210,963
- Microbial tryptophan fluorescence (Ex300 nm/Em360 nm) ([5]; Vanc. 12.5 μg/mL, 1 hour): 428,402
- Microbial NADH fluorescence (Ex340 nm/Em440 nm) ([5]; Vanc. 12.5 μg/mL, 2.5 hour): 171,994
- Microbial tryptophan fluorescence (Ex300 nm/Em360 nm) ([5]; Vanc. 12.5 μg/mL, 2.5 hour): 455,446
- Microbial NADH fluorescence (Ex340 nm/Em440 nm) ([5]; Vanc. 12.5 μg/mL, 4 hour): 127,042
- Microbial tryptophan fluorescence (Ex300 nm/Em360 nm) ([5]; Vanc. 12.5 μg/mL, 4 hour): 438,978
- Microbial NADH fluorescence (Ex340 nm/Em440 nm) ([5]; Vanc. 12.5 μg/mL, Zero time): 178,982
- Microbial tryptophan fluorescence (Ex300 nm/Em360 nm) ([5]; Vanc. 12.5 μg/mL, Zero time): 389,264
- Course of cellular NADH levels [5, 8]: gradually declined over time
- Course of cellular tryptophan levels [5, 8]: remained stable over time
